Test results: patent US20090176701A1, “Anti-microbial agents that interact with the complement system” (priority 2005, published 2009)

Key:
Assay type in all cases: cell-based
E. coli O18:K1:H7 [1] = assay: Bacterial killing assay without blood (growth medium); conditions: no blood; for CFU (Range): Table 4, growth medium 6.2
Procedure: Peptides #1, #3 and #4 were tested for their activity without blood on E. coli O18:K1:H7. The peptides were assayed at 3 μM. The same blood and TFPI controls were included as in Experiment I.

E. coli O18:K1:H7 [2] = assay: Bacterial killing assay in 10% blood; parameters: CFU / CFU (Range) / CFU 1 hour / CFU 3 hours / CFU 5 hours / CFU 3 hour: scale not given here; conditions: for activity against O18ac:K1:H7 E. coli strain in blood / bacterial killing activity (effect on bacterial growth) / CFU / CFU 1 hour / CFU 3 hours / CFU 5 hours: 10% blood; for activity against O18ac:K1:H7 E. coli strain in blood: concentrations tested 10 nM to 3 μM, peptide #5 compared to peptide #3; for bacterial killing activity (effect on bacterial growth): FIGS. 1 and 2, TFPI 5 μM, cathepsin G 400 nM; for CFU 1 hour / CFU 3 hours / CFU 5 hours: Table 5, 3000 CFU; for CFU 1 hour: blood 3.4; for CFU 3 hours: blood 4.2; for CFU 5 hours: blood 5.1; for bacterial survival (outgrowth of bacterial colonies): FIG. 11d, E. coli O18ac:K1:H7 in diluted whole blood
Procedure: TFPI was incubated with α-thrombin, plasmin, elastase and cathepsin G in 10% blood and tested for bacterial killing activity against E. coli O18:K1:H7 as follows. Recombinant TFPI at 5 μM (unless indicated otherwise), was treated with plasmin (100 nM, lane 3) and α-thrombin (100 nM, lane 7; 1 μM, lane 8) (A), elastase (100 nM, lanes 3 and 4) (B), and cathepsin G (100 nM, lane 4; 1 μM, lanes 5, 6 and 7) (C) in a total volume of 180 μl. The reaction contained TFPI diluted in RPMI 1640 without phenol red, 25 mM Hepes, pH 7.5 (RPMI), 3000 CFU E. coli O18:K1:H7 in 40 μl PBS, and diluted enzyme in 20 μl RPMI. The volume was adjusted with RPMI. The samples were pre-incubated for 15-30 minutes before the addition of anti-coagulant-free fresh blood to a final volume of 200 μl. Controls were 10% blood in RPMI, TFPI at 1, 2 and 5 μM, and the enzymes alone at the respective concentrations. The samples were incubated for 4 hours at 37° C. with 5% CO2 in a humidified incubator and serial dilutions plated on Tryptase soy agar plates. The number of bacterial colonies was determined after overnight incubation at 37° C. All experimental conditions are run in duplicate. The data represent the average colony number.
The 18 μl aliquots were diluted to 10 μM TFPI with 445 μl RPMI 1640 without phenolred, 25 mM Hepes, pH 7.5 (RPMI) and assayed at a final concentration of 5 μM in 200 μl reactions containing 3000 CFU E. coli in 40 μl PBS, 10% non-coagulated blood, and adjusted to the final volume with RPMI. Negative controls were 10% blood in RPMI, TFPI at 5 μM and cathepsin G at 400 nM. Anti-coagulant free blood was freshly drawn and added to the reaction as the last component. The samples were manipulated as described above.
Peptides were designed to test for bacterial killing activity localized in the C-terminal domain of TFPI. Activity was measured against Gram negative (E coli O18:K1:H7. ATCC 700973) bacteria in the presence of 10% blood as described above. Controls were RPMI with 10% blood and 100 nM Tifacogin. The biological activity was determined from the reduction of bacterial colonies, as above.
The three peptides #1, #2, & #3 were diluted in H2O to 10 fold their final assay concentration and incubated with bacteria for 4 hours, at the final concentrations of 3 μM, 300 nM 100 nM and 10 nM. E. coli was used at 3000 CFU/200 μl. Surviving colony numbers were determined as described in Example 1. […] Full-length TFPI has no activity against Gram negative bacteria in these assays at the concentrations tested.
Time-dependency: Peptides were incubated with 3000 CFU E. coli O18:K1:H7 at the indicated final concentrations in the presence of 10% blood in three parallel 200 μl reactions as described above. RPMI with 10% blood was used as negative control. After incubation for 1, 3, or 5 hours samples were assayed for the effect on bacterial survival by plating serial dilutions onto agar plates. […] The effect of peptides on bacterial survival increases over the time-span studied.
In these experiments, variable concentrations of E. coli O18:K1:H7 (3×10^3, 3×10^4 or 3×10^5 CFU/200 μl) were challenged with either 3 μM or 100 nM peptide #3 in RPMI/10% blood, and incubated for 3 or 5 hours before dilution and plating. Briefly, the bacteria were diluted to the indicated CFU in 40 μl PBS, the reactions assembled at a final volume of 200 μl as above, and incubated at 37° C. Serial dilutions of the reactions were plated and the colony number determined after overnight incubation. […] At 5 hours no effect on the high CFU culture was discernable, indicating a titration of the killing activity and the high CFU culture exceeding the capacity.

E. coli O18:K1:H7 [3] = assay: Bacterial killing assay in serum or plasma (complement dependence); conditions: FIG. 8D; peptides serially diluted to 300 nM, and 30 nM in serum
IL-6 secretion = assay: IL-6 induction assay in diluted whole blood in the presence of LPS; conditions: FIG. 11c; peptide and LPS dose-dependent
Procedure: The ability of TFPI to induce IL-6 secretion in the presence of LPS was tested using TFPI and TFPI analogs, including: (i) TFPI1-161, having just residues 1-161 of TFPI; (ii) TFPI with mutant K1; (iii) TFPI with mutant K2; (iv) TFPI with mutants K1 and K2.
When diluted, freshly drawn whole blood is incubated with LPS derived from the cell wall of Gram-negative bacteria, a cytokine cascade is induced within a few hours.
A peptide consisting of the 22 C-terminal amino acids of TFPI (i.e. SEQ ID NO:3) was tested in an IL-6 assay in the presence of LPS. […] Thus this peptide appears to be able to neutralize the endotoxin activity of LPS.

[4] = Table 1, peptide 300 nM, 3000 CFU/200 μl, 4 hours, blood control 5.1
[5] = Table 1, peptide 3 μM, 3000 CFU/200 μl, 4 hours, blood control 5.1
[6] = Table 4, in blood, peptide 3 μM, blood control 5.1

TFPI: all exogenous TFPI in the examples is the TFPI analog ala-TFPI (SEQ ID NO:2), tifacogin
CFU (Range) (E. coli O18:K1:H7 [1]; TFPI control): 6.2
activity against O18ac:K1:H7 E. coli strain in blood (E. coli O18:K1:H7 [2]; 4 hours): no activity
bacterial killing activity (effect on bacterial growth) (E. coli O18:K1:H7 [2]): did not exhibit a similar activity
CFU (E. coli O18:K1:H7 [2]; Table 1, TFPI control (100 nM Tifacogin), 3000 CFU/200 μl, 4 hours, blood control 5.1): 5.2
CFU (Range) (E. coli O18:K1:H7 [2]; Table 4, in blood, TFPI control): 5.2

Heparin [reference compound]
CFU (Range) (E. coli O18:K1:H7 [2]; Table 9, blood alone control with Heparin, 3 U/mL, no peptide): 5.4 (5.3-5.4)

GFIQRISKGGLIKTKRKRKKQRVKIAYEEIFVKNM (homo sapiens) [Peptide #5, TFPI aas 242-276]
activity against O18ac:K1:H7 E. coli strain in blood (E. coli O18:K1:H7 [2]; 4 hours): similar, but slightly reduced
CFU (E. coli O18:K1:H7 [2]; Table 2, peptide 10 nM, blood control 3.5): 4.1
CFU (E. coli O18:K1:H7 [2]; Table 2, peptide 100 nM, blood control 3.5): 2.1

NFQRKEKREVIYKVKTKIKAMR (homo sapiens) [Peptide #2, scrambled control peptide, aas 255-276 scramble, reference compound]
bacterial killing activity in serum (rank) (E. coli O18:K1:H7 [3]): inactive
CFU (E. coli O18:K1:H7 [2]; [4]): 5.3
CFU (E. coli O18:K1:H7 [2]; [5]): 5.4
CFU 1 hour (E. coli O18:K1:H7 [2]; 3 μM): 3.4
CFU 3 hours (E. coli O18:K1:H7 [2]; 3 μM): 4.3
CFU 5 hours (E. coli O18:K1:H7 [2]; 3 μM): 5.2

LLGDFFRKSKEKIGKEFKRIVQRIKDFLRNLVPRTES [Peptide #4, reference compound]
inhibition of bacteria in the absence of blood (E. coli O18:K1:H7 [1]; 3000 nM): full inhibition of bacteria
CFU (E. coli O18:K1:H7 [2]; [4]): 4.9
CFU (E. coli O18:K1:H7 [2]; [5]): 1.3
CFU (Range) (E. coli O18:K1:H7 [2]; [6]): 1.3 (1.3-1.4)
CFU 1 hour (E. coli O18:K1:H7 [2]; 300 nM): 3.3
CFU 3 hours (E. coli O18:K1:H7 [2]; 300 nM): 3.9
CFU 5 hours (E. coli O18:K1:H7 [2]; 300 nM): 3.1
CFU 1 hour (E. coli O18:K1:H7 [2]; 3 μM): 3.1
CFU 3 hours (E. coli O18:K1:H7 [2]; 3 μM): 3.4
CFU 5 hours (E. coli O18:K1:H7 [2]; 3 μM): 1.2

TKRKRKKQRVKIAYEEIFVKNM (homo sapiens) [Peptide #1, TFPI aas 255-276, the 22 C-terminal amino acids of TFPI]
effect of LPS on cytokine production (IL-6) (IL-6 secretion): completely reversed the effect of LPS on cytokine production
CFU (Range) (E. coli O18:K1:H7 [1]; peptide 3 μM): 5.6
bacterial killing activity in serum (rank) (E. coli O18:K1:H7 [3]): greatly reduced activity
activity against O18ac:K1:H7 E. coli strain in blood (E. coli O18:K1:H7 [2]; 4 hours): active
bacterial survival (outgrowth of bacterial colonies) (E. coli O18:K1:H7 [2]; 300 nM of peptide): killed all bacteria
bacterial survival (outgrowth of bacterial colonies) (E. coli O18:K1:H7 [2]): dose-dependently reduced bacterial survival
CFU (E. coli O18:K1:H7 [2]; [4]): 5.2
CFU (E. coli O18:K1:H7 [2]; [5]): 1.1
CFU (Range) (E. coli O18:K1:H7 [2]; [6]): 1.1 (0.4-1.2)
CFU 1 hour (E. coli O18:K1:H7 [2]; 300 nM): 3.4
CFU 3 hours (E. coli O18:K1:H7 [2]; 300 nM): 4.2
CFU 5 hours (E. coli O18:K1:H7 [2]; 300 nM): 4.2
CFU 1 hour (E. coli O18:K1:H7 [2]; 3 μM): 3.4
CFU 3 hours (E. coli O18:K1:H7 [2]; 3 μM): 1.2
CFU 5 hours (E. coli O18:K1:H7 [2]; 3 μM): 0.2
CFU (Range) (E. coli O18:K1:H7 [2]; Table 9, peptide 3 μm, Heparin, 3 U/mL): 5.5
CFU (Range) (E. coli O18:K1:H7 [2]; Table 9, peptide 3 μm, LMW heparin, 0.3 U/mL): 4.7 (4.5-5.1)
CFU (Range) (E. coli O18:K1:H7 [2]; Table 9, peptide 3 μm, LMW heparin, 3 U/mL): 5.3
CFU (Range) (E. coli O18:K1:H7 [2]; Table 9, peptide 3 μm, no heparin, blood alone 4.9): 1.2 (N.D.-1.4)
bacterial killing activity with un-fractionated heparin (E. coli O18:K1:H7 [2]; peptide 3 μm, un-fractionated heparin at 0.3 U/ml, data not shown): partial loss of bacterial killing activity

B1: Cathepsin G: protease used to digest TFPI, tested alone as negative control at 400 nM (protein, UniProt P08311 21-244, looked up)
Cathepsin G: IIGGRESRPHSRPYMAYLQIQSPAGQSRCGGFLVREDFVLTAAHCWGSNINVTLGAHNIQRRENTQQHITARRAIRHPQYNQRTIQNDIMLLQLSRRVRRNRNVNPVALPRAQEGLRPGTLCTVAGWGRVSMRRGTDTLREVQLRVQRDRQCLRIFGSYDPRRQICVGDRRERKAAFKGDSGGPLLCNNVAHGIVSYGKSSGVPPEVFTRVSSFLPWIRTTMRS
bacterial killing activity (effect on bacterial growth) (E. coli O18:K1:H7 [2]): did not exhibit a similar activity
